The target in the assay is human GPR52 (Homo sapiens, UniProt Q9Y2T5). Nature of the assay: GPR52 Agonist Functional cAMP Assay.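 As to all read-outs here: HEKf cells transduced with GPR52 BacMam for 24 h, 2000 per well, exposed to compounds 30 min at 37° C with 0.5 mM IBMX, cAMP read by HTRF.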 To be noted: for Emax: maximal response normalised to DMSO (0%) and maximal compound 7m (J. Med. Chem., 2014, 57, 5226) response (100%); for EC50: pEC50 average, HEKf cells infected with human GPR52 BacMam virus, cAMP HTRF, 30 min at 37° C. For orientation: In TR-FRET formats the signal depends on donor and acceptor labels being close together.

Data on 29 compounds can be found in patent US20230002374A1, “GPR52 MODULATOR COMPOUNDS” (Heptares Therapeutics Limited, priority 2019, published 2023).

Chain of human GPR52 (Q9Y2T5 whole entry): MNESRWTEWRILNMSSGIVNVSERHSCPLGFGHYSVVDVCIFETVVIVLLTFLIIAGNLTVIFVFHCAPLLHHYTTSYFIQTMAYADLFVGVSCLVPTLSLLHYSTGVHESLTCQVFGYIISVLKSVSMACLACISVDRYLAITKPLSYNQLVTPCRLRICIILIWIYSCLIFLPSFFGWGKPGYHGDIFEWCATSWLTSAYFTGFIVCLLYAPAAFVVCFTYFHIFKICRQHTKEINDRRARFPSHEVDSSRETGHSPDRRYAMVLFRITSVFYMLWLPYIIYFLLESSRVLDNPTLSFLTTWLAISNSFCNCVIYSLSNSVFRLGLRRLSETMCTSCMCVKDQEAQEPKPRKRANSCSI
Experimental: Following BacMam infection, cells were pelleted by centrifugation (335 g, 5 min), resuspended in cell freezing medium (Sigma) and frozen at −150° C. until required. On experiment day, 25 nL GPR52 compound dilutions, prepared in DMSO, were stamped onto proxiplates (PerkinElmer) by a LabCyte ECHO acoustic dispenser. Frozen cells were thawed and resuspended in assay stimulation buffer (Cisbio) containing 0.5 mM 3-iso-butyl-1-methylxanthine (IBMX, Sigma) to achieve a density of 2000 cells per well. 10 μl cells were added to assay plates using a Multidrop Combi Reagent Dispenser (ThermoFisher) before centrifugation (335 g, 1 min). Cells were incubated with compounds at 37° C. for 30 min prior to addition of cAMP detection reagents (HiRange cAMP kit, Cisbio) which were prepared according to the manufacturer's instructions. Plates were shaken for 1 h at room temperature before reading on a PHERAstar FS plate reader (BMG Labtech) using standard HTRF settings.

As to `O=C1NCCc2nn(-c3cc(Cc4cccc(C(F)(F)F)c4)ccn3)nc21` [Example 43, 2-(4-(3-(trifluoromethyl)benzyl)pyridin-2-yl)-2,5,6,7-tetrahydro-4H-[1,2,3]triazolo[4,5-c]pyridin-4-one], the Emax (usually the size of the effect at its maximum, as opposed to the concentration needed) came out at 86% and the EC50 (as a rule, the concentration that produces a half-maximal response) was 251 nM.
The matching figures for `O=C1NCCCc2c1nnn2-c1ccnc(Cc2cc(F)cc(C(F)(F)F)c2)c1` [Example 97, 1-(2-(3-fluoro-5-(trifluoromethyl)benzyl)pyridin-4-yl)-5,6,7,8-tetrahydro-[1,2,3]triazolo[4,5-c]azepin-4(1H)-one]: 90% and 2510 nM.
The compound `COCCN1CCc2c(cnn2-c2cc(Cc3cc(F)cc(C(F)(F)F)c3)ccn2)C1=O` [Example 106, 1-(4-(3-fluoro-5-(trifluoromethyl)benzyl)pyridin-2-yl)-5-(2-methoxyethyl)-1,5,6,7-tetrahydro-4H-pyrazolo[4,3-c]pyridin-4-one] gave an Emax of 86% and an EC50 of 31.6 nM.
As to `O=C1NCCc2c1cnn2-c1cc(Cc2cc(F)cc(C(F)F)c2)ccn1` [Example 102, 1-(4-(3-(difluoromethyl)-5-fluorobenzyl)pyridin-2-yl)-1,5,6,7-tetrahydro-4H-pyrazolo[4,3-c]pyridin-4-one], the Emax worked out at 98% and it took 10 nM to reach a half-maximal effect (EC50).
As to `O=C1NCCc2c1cnn2-c1ccnc(Cc2cccc(C(F)(F)F)c2F)c1` [Example 29, 1-(2-(2-fluoro-3-(trifluoromethyl)benzyl)pyridin-4-yl)-1,5,6,7-tetrahydro-4H-pyrazolo[4,3-c]pyridin-4-one], the Emax was 57% and the response was half-maximal at 2510 nM (EC50).
For the compound `O=C1NCCc2c1cnn2-c1ccnc(Cc2cc(F)cc(OC(F)F)c2)c1` [Example 62, 1-(2-(3-(difluoromethoxy)-5-fluorobenzyl)pyridin-4-yl)-1,5,6,7-tetrahydro-4H-pyrazolo[4,3-c]pyridin-4-one], the Emax amounted to 94% and the EC50 was 79.4 nM.
On the same counts, the results for `O=C1NCCc2c1c(CO)nn2-c1cc(Cc2cc(F)cc(C(F)(F)F)c2)ccn1` [Example 113, 1-(4-(3-fluoro-5-(trifluoromethyl)benzyl)pyridin-2-yl)-3-(hydroxymethyl)-1,5,6,7-tetrahydro-4H-pyrazolo[4,3-c]pyridin-4-one] are 95% and 15.8 nM.
On to `Cc1cc(F)cc(Cc2cc(-n3ncc4c3CCNC4=O)ccn2)c1` [Example 26, 1-(2-(3-fluoro-5-methylbenzyl)pyridin-4-yl)-1,5,6,7-tetrahydro-4H-pyrazolo[4,3-c]pyridin-4-one], for which the Emax was found to be 95% and the midpoint of the response, the EC50, lay at 79.4 nM.
Compound `O=C1NCCc2c1nnn2-c1cc(Cc2cc(F)cc(C(F)(F)F)c2)ccn1` [Example 99, 1-(4-(3-fluoro-5-(trifluoromethyl)benzyl)pyridin-2-yl)-1,5,6,7-tetrahydro-4H-[1,2,3]triazolo[4,5-c]pyridin-4-one] showed an Emax of 95% and an EC50 of 126 nM.
Take `O=C1NCCc2c1cnn2-c1ccnc(Cc2cc(F)cc(S(F)(F)(F)(F)F)c2)c1` [Example 61, 1-(2-(3-fluoro-5-(pentafluoro-λ^6-sulfaneyl)benzyl)pyridin-4-yl)-1,5,6,7-tetrahydro-4H-pyrazolo[4,3-c]pyridin-4-one]: the maximal effect (Emax) came to 99% and the EC50 was 50.1 nM.
In turn, `O=C1NCCc2c1cnn2-c1ccnc(C(O)c2cc(F)cc(C(F)(F)F)c2)c1` (stereo not shown) [Example 36, 1-(2-((3-fluoro-5-(trifluoromethyl)phenyl)(hydroxy)methyl)pyridin-4-yl)-1,5,6,7-tetrahydro-4H-pyrazolo[4,3-c]pyridin-4-one] showed an Emax of 92% and an EC50 of 501 nM.
On the same counts, the results for `O=C1NCCc2c1cnn2-c1cnnc(Cc2cc(F)cc(C(F)(F)F)c2)c1` [Example 17, 1-(6-(3-fluoro-5-(trifluoromethyl)benzyl)pyridazin-4-yl)-1,5,6,7-tetrahydro-4H-pyrazolo[4,3-c]pyridin-4-one] are 96% and 1260 nM.
Consider `O=C1NCCc2nn(-c3cc(Cc4cc(F)cc(C(F)(F)F)c4)ccn3)nc21` [Example 98, 2-(4-(3-fluoro-5-(trifluoromethyl)benzyl)pyridin-2-yl)-2,5,6,7-tetrahydro-4H-[1,2,3]triazolo[4,5-c]pyridin-4-one], for which the Emax turned out to be 92% and a half-maximal effect (EC50) was put at 158 nM.
In turn, `O=C1NCCc2c1cnn2-c1ccnc(Cc2cnc3ccccc3c2)c1` [Example 67, 1-(2-(quinolin-3-ylmethyl)pyridin-4-yl)-1,5,6,7-tetrahydro-4H-pyrazolo[4,3-c]pyridin-4-one] had an Emax of 53% and a 50% effective concentration (EC50) of 1580 nM.
For the compound `Cc1cc(Cc2cc(-n3nc(C)c4c3CCNC4=O)ccn2)cnc1F` [Example 76, 1-(2-((6-fluoro-5-methylpyridin-3-yl)methyl)pyridin-4-yl)-3-methyl-1,5,6,7-tetrahydro-4H-pyrazolo[4,3-c]pyridin-4-one], the Emax was 94% and the midpoint of the response, the EC50, lay at 79.4 nM.
`O=C1NCCc2c1nnn2-c1cc(Cc2cccc(C(F)(F)F)c2)ccn1` [Example 42, 1-(4-(3-(trifluoromethyl)benzyl)pyridin-2-yl)-1,5,6,7-tetrahydro-4H-[1,2,3]triazolo[4,5-c]pyridin-4-one] gave an Emax of 90% and an EC50 of 794 nM.
In turn, `O=C1NCCc2c1cnn2-c1cc(Oc2cc(F)cc(C(F)(F)F)c2)ccn1` [Example 18, 1-(4-(3-fluoro-5-(trifluoromethyl)phenoxy)pyridin-2-yl)-1,5,6,7-tetrahydro-4H-pyrazolo[4,3-c]pyridin-4-one] had an Emax of 82% and an EC50 of 79.4 nM.
Take `Cc1nn(-c2ccnc(Cc3cc(F)c(Cl)c(C(F)(F)F)c3)c2)c2c1C(=O)NCC2` [Example 87, 1-(2-(4-chloro-3-fluoro-5-(trifluoromethyl)benzyl)pyridin-4-yl)-3-methyl-1,5,6,7-tetrahydro-4H-pyrazolo[4,3-c]pyridin-4-one]: the Emax worked out at 95% and a half-maximal response (EC50) required 6.31 nM.
As for `Cc1nn(-c2cc(C(O)c3cc(F)cc(C(F)(F)F)c3)ccn2)c2c1C(=O)NCC2` (single isomer, unassigned) [118 Isomer 1, 1-(4-((3-fluoro-5-(trifluoromethyl)phenyl)(hydroxy)methyl)pyridin-2-yl)-3-methyl-1,5,6,7-tetrahydro-4H-pyrazolo[4,3-c]pyridin-4-one], the Emax came to 94% and a half-maximal response (EC50) required 126 nM.
As to `O=C1NCCc2c1cnn2-c1ccnc(Cc2cccc(C(F)(F)F)c2)c1` [Example 22, 1-(2-(3-(trifluoromethyl)benzyl)pyridin-4-yl)-1,5,6,7-tetrahydro-4H-pyrazolo[4,3-c]pyridin-4-one], the Emax turned out to be 91% and a half-maximal response (EC50) required 200 nM.
`O=C1NCCc2c1cnn2-c1ccnc(Cc2cc(F)c(F)c(C(F)(F)F)c2)c1` [Example 64, 1-(2-(3,4-difluoro-5-(trifluoromethyl)benzyl)pyridin-4-yl)-1,5,6,7-tetrahydro-4H-pyrazolo[4,3-c]pyridin-4-one]: the Emax worked out at 94% and the midpoint of the response, the EC50, lay at 20 nM.
The compound `O=C1NCCOc2nn(-c3ccnc(Cc4cc(F)cc(C(F)(F)F)c4)c3)cc21` [Example 112, 2-(2-(3-fluoro-5-(trifluoromethyl)benzyl)pyridin-4-yl)-6,7-dihydro-2H-pyrazolo[4,3-f][1,4]oxazepin-4(5H)-one] had an Emax of 77% and an EC50 of 398 nM.
For the compound `COCCN1CCc2c(cnn2-c2ccnc(Cc3cc(F)cc(C(F)(F)F)c3)c2)C1=O` [Example 104, 1-(2-(3-fluoro-5-(trifluoromethyl)benzyl)pyridin-4-yl)-5-(2-methoxyethyl)-1,5,6,7-tetrahydro-4H-pyrazolo[4,3-c]pyridin-4-one], the Emax was found to be 94% and the EC50 is 100 nM.
In the case of `O=C1NCCc2c1c(C(F)(F)F)nn2-c1ccnc(Cc2cc(F)cc(C(F)(F)F)c2)c1` [Example 116, 1-(2-(3-fluoro-5-(trifluoromethyl)benzyl)pyridin-4-yl)-3-(trifluoromethyl)-1,5,6,7-tetrahydro-4H-pyrazolo[4,3-c]pyridin-4-one], the maximum response (Emax) was determined as 95% and the EC50 is 5.01 nM.
On to `O=C1NCCc2c1cnn2-c1ccnc(Cc2cc(F)c(F)c(F)c2)c1` [Example 24, 1-(2-(3,4,5-trifluorobenzyl)pyridin-4-yl)-1,5,6,7-tetrahydro-4H-pyrazolo[4,3-c]pyridin-4-one], for which the maximal response (Emax) stood at 95% and the midpoint of the response, the EC50, lay at 316 nM.
`COc1ncc(Cc2cc(-n3ncc4c3CCNC4=O)ccn2)cc1F` [Example 72, 1-(2-((5-fluoro-6-methoxypyridin-3-yl)methyl)pyridin-4-yl)-1,5,6,7-tetrahydro-4H-pyrazolo[4,3-c]pyridin-4-one] gave an Emax of 83% and an EC50 of 1260 nM.
Regarding `N#Cc1cc(Cc2cc(-n3ncc4c3CCNC4=O)ccn2)cc(C(F)(F)F)c1` [Example 33, 3-((4-(4-oxo-4,5,6,7-tetrahydro-1H-pyrazolo[4,3-c]pyridin-1-yl)pyridin-2-yl)methyl)-5-(trifluoromethyl)benzonitrile], the Emax worked out at 58% and the EC50 is 3160 nM.
The compound `Cc1nn(-c2ccnc(Cc3cnc(OC(F)F)c(F)c3)c2)c2c1C(=O)NCC2` [Example 111, 1-(2-((6-(difluoromethoxy)-5-fluoropyridin-3-yl)methyl)pyridin-4-yl)-3-methyl-1,5,6,7-tetrahydro-4H-pyrazolo[4,3-c]pyridin-4-one] had an Emax of 87% and an EC50 of 63.1 nM.
In turn, `O=C1NCCCc2c1cnn2-c1cc(Cc2cccc(C(F)(F)F)c2)ccn1` [Example 11, 1-(4-(3-(trifluoromethyl)benzyl)pyridin-2-yl)-5,6,7,8-tetrahydropyrazolo[4,3-c]azepin-4(1H)-one] showed an Emax of 86% and an EC50 of 63.1 nM.
